This is an account of results in publication PMC5041076, “Ilex kaushue and Its Bioactive Component 3,5-Dicaffeoylquinic Acid Protected Mice from Lipopolysaccharide-Induced Acute Lung Injury” (Scientific Reports, 2016).

Where two headings read alike, the source gives them in different places.

The target of test [1] is T1, Bovine chymotrypsin (Bos taurus, UniProt P00766).
T1 construct: purchased Sigma-Aldrich C4129
As to the kind of experiment: Serine protease enzyme inhibition assay, chymotrypsin. The note with it: mean ± S.E.M. (n ≥ 3). The test is classed as biochemical.

For test [2], the target named is Human thrombin (Homo sapiens, UniProt P00734). As to the kind of experiment: Serine protease enzyme inhibition assay, thrombin.
Test [3] concerns the target T2, Human cathepsin G (Homo sapiens, UniProt P08311).
T2 construct: purchased Enzo BML-SE283
T2 sequence (P08311 21-255): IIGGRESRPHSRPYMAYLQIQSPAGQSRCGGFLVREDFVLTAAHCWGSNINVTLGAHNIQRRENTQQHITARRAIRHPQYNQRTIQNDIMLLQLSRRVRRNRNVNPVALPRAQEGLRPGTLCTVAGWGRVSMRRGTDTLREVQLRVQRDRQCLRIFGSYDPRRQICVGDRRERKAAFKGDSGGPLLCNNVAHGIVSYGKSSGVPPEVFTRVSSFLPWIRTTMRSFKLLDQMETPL
The test is described as follows: Serine protease enzyme inhibition assay, cathepsin G. To be noted: mean ± S.E.M. (n ≥ 3). The class given is biochemical.

In test [4] the test system is fMLF/CB-activated neutrophils. As to the kind of experiment: O2.- generation in fMLF/CB-activated neutrophils (ferricytochrome c reduction). The test is classed as cell-based, human. The note with it: fMLF/CB-activated human neutrophils. As for the experimental part:
(§1) All assays were performed as described previously[58],[59]. Neutrophils isolated from the blood of healthy volunteers (20–30 years old) were resuspended in a Ca^2+-free HBSS buffer (pH 7.4) at 4 °C before use. O2^.− generation was measured based on reduction of ferricytochrome c. In brief, after supplementation with 0.5 mg/ml ferricytochrome c and 1 mM Ca^2+, neutrophils were equilibrated at 37 °C for 2 min and incubated with the specified drugs for 5 min. Neutrophils were activated using 30 nM fMLF or 100 nM LTB4 for 10 min after addition of cytochalasin B (CB, 1 μg/mL) for 3 min. Changes in absorbance concomitant with reduction of ferricytochrome c at 550 nm were continuously monitored. For elastase release, neutrophils (6 × 10^5 cells/mL) were mixed with methoxysuccinyl-Ala-Ala-Pro-Val-pNA (100 μM) substrate at 37 °C for 5 min. […] Inhibition of superoxide generation and elastase release were calculated in keeping with previous reports.

Test [5] deals with fMLF/CB-activated neutrophils. As to the kind of experiment: Elastase release in fMLF/CB-activated neutrophils. The test is classed as cell-based. The note with it: for IC50: read-out: IC50 HNE (NE activity / elastase release). As for the experimental part:
as §1

The target of test [6] is T3, Human proteinase 3 (Homo sapiens, UniProt P24158).
T3 construct: purchased Merk 539483
T3 sequence (P24158 28-256): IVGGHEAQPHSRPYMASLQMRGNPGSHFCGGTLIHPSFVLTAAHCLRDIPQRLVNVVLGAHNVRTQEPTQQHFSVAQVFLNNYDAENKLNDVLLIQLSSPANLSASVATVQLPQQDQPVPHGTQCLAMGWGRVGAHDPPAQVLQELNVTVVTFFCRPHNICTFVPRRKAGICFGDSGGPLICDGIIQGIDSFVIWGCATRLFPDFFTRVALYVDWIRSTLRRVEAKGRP
As to the kind of experiment: Serine protease enzyme inhibition assay, proteinase 3. To be noted: mean ± S.E.M. (n ≥ 3). The test is classed as biochemical.

In test [7] the target is T4, Human neutrophil elastase (Homo sapiens, UniProt P08246).
T4 construct: purchased Enzo BML-SE284
T4 sequence (P08246 30-267): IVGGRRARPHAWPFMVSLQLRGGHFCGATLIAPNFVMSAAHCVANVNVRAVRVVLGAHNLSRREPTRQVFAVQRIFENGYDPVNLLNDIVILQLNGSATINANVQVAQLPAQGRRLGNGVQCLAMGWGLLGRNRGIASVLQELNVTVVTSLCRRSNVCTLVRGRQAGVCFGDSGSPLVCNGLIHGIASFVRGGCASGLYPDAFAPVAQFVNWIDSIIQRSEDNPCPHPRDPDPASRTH
As to the kind of experiment: Serine protease enzyme inhibition assay, HNE. The class given is biochemical. To be noted: for selectivity of inhibitory effect among serine proteases: five serine proteases examined; for Inh % (HNE inhibition): at 30 M (so in the source).

Where [8] appears, read: fMLF/CB-activated human neutrophils.
Setting [9] is: enzyme assay, mean ± S.E.M. (n ≥ 3), read-out: IC50 HNE.
The mark [10] stands for this setting: Table S3, read-out: IC50 HNE inhibitory activity.

As to `C[C@H]1[C@H](C)CC[C@]2(C(=O)O)CC[C@]3(C)C(=CC[C@@H]4[C@@]5(C)CC[C@H](O)C(C)(C)[C@@H]5CC[C@]43C)[C@H]12` [Compound 9, ursolic acid], the IC50 in test [1] is 6.06 ± 0.05 µM; in test [2] it was 6.37 ± 0.6 µM; in test [3] it was more than 30 µM; in test [4] (Neutrophil), 0.99 ± 0.26 µM; in test [5] (Homo sapiens, Neutrophil), 1.07 ± 0.33 µM; in test [6], 7.33 ± 0.65 µM. For the same molecule, in test [7] (setting [9]), the IC50 is 11.5 ± 1.28 µM. Moreover, the “IC50 O2^.− generation” value in test [4] is “good inhibitory effects”. Moreover, in test [5] (setting [8]), the “IC50 HNE (NE activity / elastase release)” value is “good inhibitory effects”. Moreover, the “selectivity of inhibitory effect among serine proteases” value in test [7] was “non-selective inhibitory effects”.
With `O=C(O)C=Cc1cccc(O)c1` [Compound 3-HCA, 3-hydroxycinnamic acid, reference compound], the IC50 was more than 10 µM in test [4] (Neutrophil); more than 10 µM in test [5] (Homo sapiens, Neutrophil); more than 30 µM in test [7] (setting [10]). In test [4], the “IC50 O2^.− generation” value is “non-active”. Also, the “Inh % (HNE inhibition)” value in test [7] (Table S3) was -3.63 ± 3.91%.
Consider `C=C1C2=C3C=C[C@@H]4[C@@]5(C)CC[C@H](O)C(C)(C)[C@@H]5CC[C@@]4(C)[C@]3(C)CC[C@@]23CC[C@]1(C)OC3=O` [Compound 11-2], for which the IC50 is 6.04 ± 0.29 µM in test [1]; 2.98 ± 0.35 µM in test [2] (read-out: IC50 Thrombin, enzyme assay, mean ± S.E.M. (n ≥ 3)); more than 30 µM in test [3]; more than 10 µM in test [4]; more than 10 µM in test [5] (setting [8]); 1.99 ± 0.25 µM in test [6]. In addition, the IC50 in test [7] (setting [9]) was found to be 8.55 ± 1.77 µM. Moreover, in test [7], the “selectivity of inhibitory effect among serine proteases” value is on record as “non-selective inhibitory effects”.
Take `NCCc1ccc(S(=O)(=O)F)cc1` [AEBSF, 4-(2-aminoethyl)-benzenesulphonyl fluoride, reference compound]: the IC50 in test [2] stood at 251 ± 8.78 µM.
Take `O=C(O)/C=C/c1ccc(O)c(O)c1` [CA, caffeic acid, reference compound]: the IC50 in test [4] (Neutrophil) is 1.42 ± 0.02 µM; in test [5] (Homo sapiens, Neutrophil) it was more than 10 µM; in test [7] (setting [10]), more than 30 µM. Also, the “IC50 O2^.− generation” value in test [4] is listed as “potently inhibit”.
Consider `O=C(O)c1cc(O)c(O)c(O)c1` [THBA, 3,4,5-trihyroxybenzoic acid, reference compound], for which the IC50 in test [4] is 1.14 ± 0.08 µM; in test [5] (setting [8]), more than 10 µM. In test [4], the “IC50 O2^.− generation” value was “potently inhibit”.
In the case of `COc1cc(/C=C/C(=O)O)ccc1O` [FA, ferulic acid, reference compound], the values for the IC50 in test [4], in test [5] (setting [8]) and in test [7] (setting [10]) were more than 10 µM, more than 10 µM and more than 30 µM, respectively. Moreover, in test [4], the “IC50 O2^.− generation” value was “non-active”. Also, the “Inh % (HNE inhibition)” value in test [7] (Table S3) came to 0.06 ± 4.79%.
As for `O=C(O)[C@]1(O)C[C@@H](O)[C@@H](O)[C@H](O)C1` [QA, quinic acid], the IC50 was more than 10 µM in test [4] (Neutrophil) and more than 10 µM in test [5] (Homo sapiens, Neutrophil).
In turn, `CC(C)(C)C(=O)Oc1ccc(S(=O)(=O)Nc2ccccc2C(=O)NCC(=O)O)cc1` [Elaspol, reference compound] came in with an IC50 in test [6] of 0.56 ± 0.06 µM.
For the molecule `O=C(O)/C=C/c1ccc(O)cc1` [p-CA, p-coumaric acid, reference compound], the IC50 is more than 10 µM in test [4] (Neutrophil); more than 10 µM in test [5] (Homo sapiens, Neutrophil); more than 30 µM in test [7] (setting [10]). In addition, in test [4], the “IC50 O2^.− generation” value is listed as “non-active”. In test [7] (Table S3), the “Inh % (HNE inhibition)” value is given as -4.00 ± 3.42%.
Turning to `O=C(/C=C/c1ccc(O)c(O)c1)O[C@H](Cc1ccc(O)c(O)c1)C(=O)O` [RA, rosaminiric acid, reference compound], the IC50 in test [4] is 1.29 ± 0.09 µM; in test [5] (setting [8]) it was more than 10 µM; in test [7] (setting [10]), more than 30 µM. Besides, in test [4], the “IC50 O2^.− generation” value is on record as “potently inhibit”. The “Inh % (HNE inhibition)” value in test [7] (Table S3) was found to be 10.58 ± 4.03%.
